Test results as given in patent publication EP0536402A1, “PIPERIDINE DERIVATIVE” (NIPPON SHINYAKU COMPANY, LIMITED, priority 1990, dated 1992).
Where a name gives a salt, the structure may show the parent alone.

The molecules below were run against β -galactosidase (assay: β-galactosidase inhibitory activity (colorimetric, O-nitrophenyl-β-D-galactopyranose substrate)). Conditions: Test Example 1; acetate buffer pH 5.0, 37°C, 15 minutes.
Type: biochemical, Aspergillus sp.
Description: The assay of this activity was carried out by permitting β -galactosidase to act on the substrate O-nitrophenyl-β -D-galactopyranose and quantitating O-nitrophenol, which was released on hydrolysis, colorimetrically. Thus, a mixture of 0.9 ml of 100 mM acetate buffer (pH 5.0), 0.1 ml of a solution of the test substance (dissolved in 100 mM acetate buffer at pH 5.0) and 0.5 ml of a 20 mM substrate solution was previously warmed at 37°C for […] and, then, dissolved in 10 mM acetate buffer at pH 5.0. Then, 0.5 ml of a solution of β -galactosidase was added and the reaction was conducted at 37°C for 15 minutes. The absorbance (A) at 420 nm was then measured. The absorbance (B) of a reaction mixture not containing the test substance was also measured and using the equation of % inhibition = (B - A)/B x 100 [formula] , the concentration of the test substance causing 50% inhibition of β -galactosidase activity (IC₅₀) was determined. The β -galactosidase derived from Aspergillus sp. was used. It is clear that the compound of the present invention has high β -galactosidase inhibitory activity.

| Compound | IC₅₀ [ng/mL] |
| --- | --- |
| OC[C@@H]1[C@H](O)[C@H](O)[C@@H](O)CN1CC=Cc1ccccc1 [Example 10, N-cinnamyl-1-deoxygalactostatin] | 175 |
| CCCCCCCCCCCCN1C[C@H](O)[C@@H](O)[C@@H](O)[C@H]1CO [Example 6, N-n-dodecyl-1-deoxygalactostatin] | 23 |
| CCCN1C[C@H](O)[C@@H](O)[C@@H](O)[C@H]1CO [Example 3, N-n-propyl-1-deoxygalactostatin] | 44 |
| OC[C@@H]1[C@H](O)[C@H](O)[C@@H](O)CN1CCCc1ccccc1 [Example 7, N-(3-phenylpropyl)-1-deoxygalactostatin] | 88 |
| CN1C[C@H](O)[C@@H](O)[C@@H](O)[C@H]1CO [Example 1, N-methyl-1-deoxygalactostatin] | 15 |
| C=CCN1C[C@H](O)[C@@H](O)[C@@H](O)[C@H]1CO [Example 9, N-allyl-1-deoxygalactostatin] | 187 |
| CCN1C[C@H](O)[C@@H](O)[C@@H](O)[C@H]1CO [Example 2, N-ethyl-1-deoxygalactostatin] | 82 |
| CCCCCCCN1C[C@H](O)[C@@H](O)[C@@H](O)[C@H]1CO [Example 5, N-n-heptyl-1-deoxygalacto-statin] | 32 |
| OC[C@H]1NC[C@H](O)[C@@H](O)[C@H]1O [1-deoxygalactostatin hydrochloride, reference compound] | 451 |
| OC[C@@H]1[C@H](O)[C@H](O)[C@@H](O)CN1Cc1ccc(Cl)cc1 [Example 8, N-p-chlorobenzyl-1-deoxygalactostatin] | 180 |
| CC(C)CN1C[C@H](O)[C@@H](O)[C@@H](O)[C@H]1CO [Example 4, N-isobutyl-1-deoxygalactostatin] | 40 |

Same assay, conditions: Test Example 2; acetate buffer pH 5.0, 37°C, 15 minutes

| Compound | IC₅₀ [ng/mL] |
| --- | --- |
| CCCCCN1C[C@H](O)[C@@H](O)[C@@H](O)[C@H]1CO [Example 13, N-n-pentylnyl-1-deoxygalactostatin] | 113 |
| CSc1ccc(CN2C[C@H](O)[C@@H](O)[C@@H](O)[C@H]2CO)cc1 [Example 15, N-p-methylthiobenzyl-1-deoxygalactostatin] | 393 |
| CCCCN1C[C@H](O)[C@@H](O)[C@@H](O)[C@H]1CO [Example 23, N-n-butyl-1-deoxygalactostatin] | 154 |
| OC[C@@H]1[C@H](O)[C@H](O)[C@@H](O)CN1Cc1ccc(-c2ccccc2)cc1 [Example 12, N-(p-phenylbenzyl)-1-deoxygalactostatin] | 166 |
| O=C(O)CCCN1C[C@H](O)[C@@H](O)[C@@H](O)[C@H]1CO [Example 24, N-(3-carboxypropyl)-1-deoxygalactostatin] | 351 |
| COCCN1C[C@H](O)[C@@H](O)[C@@H](O)[C@H]1CO [Example 11, N-methoxyethyl-1-deoxygalactostatin] | 59 |
| OC[C@@H]1[C@H](O)[C@H](O)[C@@H](O)CN1CC1CCCCC1 [Example 20, N-cyclohexylmethyl-1-deoxygalactostatin] | 37 |
| OC[C@@H](O)[C@H](O)[C@H](O)[C@@H](O)CN1C[C@H](O)[C@@H](O)[C@@H](O)[C@H]1CO [Example 17, N-(1'-deoxygalactitoyl)-1-deoxygalactostatin] | 49 |
| COc1ccc(CN2C[C@H](O)[C@@H](O)[C@@H](O)[C@H]2CO)cc1C [Example 22, N-(3'-methyl-4'-methoxybenzyl)-1-deoxygalactostatin] | 359 |
| OC[C@H]1NC[C@H](O)[C@@H](O)[C@H]1O [1-deoxygalactostatin hydrochloride, reference compound] | 440 |
| COc1ccc(CN2C[C@H](O)[C@@H](O)[C@@H](O)[C@H]2CO)cc1 [Example 14, N-p-methoxybenzyl-1-deoxygalactostatin] | 391 |
| OC[C@@H]1[C@H](O)[C@H](O)[C@@H](O)CN1CCc1ccccc1 [Example 16, N-phenylethyl-1-deoxygalactostatin] | 21 |
| CC(=O)Nc1ccc(CN2C[C@H](O)[C@@H](O)[C@@H](O)[C@H]2CO)cc1 [Example 18, N-(p-acetamidobenzyl)-1-deoxygalactostatin] | 340 |
| CSCCCN1C[C@H](O)[C@@H](O)[C@@H](O)[C@H]1CO [Example 21, N-(3'-methylthiopropyl)-1-deoxygalactostatin] | 49 |
